These compounds were tested on HEK293 cells (assay: Preliminary screening as DNA vectors, GFP transfection of HEK293 cells). Conditions: amino lipid/DOPE liposome with 75 ng plasmid DNA (psin-EGFP-IRES-Puro); number of GFP-expressing cells divided by total nuclei (Hoechst).
Format: cell-based
Description: Cell line: HEK293 cells (ATCC CRL-1573™)
Medium: DMEM supplemented with 10% fetal bovine serum (Invitrogen)
Mode of screening: cell transfection on 96-well plates
Detection (readout): percentage of the number of GFP fluorescent cells relative to the total number of cells (the total number of cells was measured using nucleus dye Hoechst—see FIG. 2). Lipofectamine2000 (Invitrogen) was used as positive control, according to the manufacturer's instructions.
Method: an 8-channel pipette was used for sample addition. The contents shown were for a single well of a 96-well flat plate.
1. The compound (0.01 mmol) prepared in Example 1 was dissolved in 1 mL of anhydrous ethanol. After ultrasonically dissolved, 10 μL of the resultant amino lipid solution in ethanol was taken and mixed with 5 μL of DOPE solution in ethanol (0.01 m), and then to the obtained mixture was added 35 μL of 0.2M sodium acetate buffer (pH 5.6), and 50 μL of liposome solution was prepared by vortex at a constant rotating speed for 30 s. 4 μL was taken from the 50 μL liposome solution and added to 46 μL of 0.02M sodium acetate buffer (pH 5.6), and the final liposome solution was formed by vortex at a constant rotating speed for 30 s. 5 μL was taken from the final liposome solution and mixed with 75 ng plasmid DNA (psin-EGFP-IRES-Puro, Clontech) dissolved in 5 μL of 0.02 M sodium acetate buffer, and was allowed to stay at room temperature for 30 min to form a lipid/DNA transfection complex.
2. 10 μL of the lipid/DNA transfection complex was incubated at room temperature for 30 min, followed by addition of 90 μL of fresh resuspended cells (3-5×10^4 cells) and mixing with a pipette. 100 μL of cells+lipid/DNA complex was transferred to separate wells of a 96-well culture plate immediately, and placed in an incubator containing 5% CO2 at 37° C.
3. Hoechst33258 (Invitrogen) was added at a final concentration of 0.2 μg/mL to the cells 20 to 24 hours after initial cell transfection, and cultured in darkness at 37° C. for 15 min. Afterwards, the cells were washed once with a PBS solution, and then added with medium for culture for 20 to 24 h.
4. The cells were placed in a high-throughput confocal microscope (Molecular Devices ImageXpress), and four visual fields of the image of the cells were captured for each well, and images at three laser wavelengths were captured for each sample: bright field images of cells (FIG. 2(a) and FIG. 2(b)), Hoechst-staining images showing total nuclei (FIG. 2(c) and FIG. 2(d)) and GFP images showing success in transfection with the plasmid DNA and the expression of GFP (FIG. 2(e) and FIG. 2(f)). MetaXpress software was used to separately count the cells in the Hoechst-staining images and GFP images, and then the number of cells expressing GFP was divided by the total number of nuclei to give the absolute cell transfection efficiency. The absolute transfection efficiency was calculated as follows: […]

Row | Structure (SMILES) | Absolute DNA transfection efficiency in HEK293 cells
1 | CCCCCCCCSc1nc(NCCN2CCCC2)nc(SCCCCCC)n1 [S6S8 D3] | 2.8%
2 | CCCCCCCCSc1nc(NCCN2CCCCC2)nc(SCCCCCC)n1 [S6S8 D4] | 1.3%
3 | CCCCCCCCSc1nc(NCCN2CCN(C)CC2)nc(SCCCCCC)n1 [S6S8 D5] | 15.3%
4 | CCCCCCCCSc1nc(NCCCN(C)C)nc(SCCCCCC)n1 [S6S8 D6] | 7.4%
5 | CCCCCCCCSc1nc(NCCN(CC)CC)nc(SCCCCCC)n1 [S6S8 D7] | 15.0%
6 | CCCCCCCCSc1nc(NCCCN2CCOCC2)nc(SCCCCCC)n1 [S6S8 D8] | 0.6%
7 | CCCCCCCCSc1nc(NCCCN2CCN(C)CC2)nc(SCCCCCC)n1 [S6S8 D9] | 10.0%
8 | CCCCCCCCSc1nc(NCC2CCN(C)CC2)nc(SCCCCCC)n1 [S6S8 D10] | 24.1%
9 | CCCCCCCCCSc1nc(NCCN(C)C)nc(SCCCCCC)n1 [S6S9 D1] | 2.6%
10 | CCCCCCCCCSc1nc(NCCN2CCOCC2)nc(SCCCCCC)n1 [S6S9 D2] | 9.1%
11 | CCCCCCCCCSc1nc(NCCN2CCCC2)nc(SCCCCCC)n1 [S6S9 D3] | 6.9%
12 | CCCCCCCCCSc1nc(NCCN2CCCCC2)nc(SCCCCCC)n1 [S6S9 D4] | 1.8%
13 | CCCCCCCCCSc1nc(NCCN2CCN(C)CC2)nc(SCCCCCC)n1 [S6S9 D5] | 13.7%
14 | CCCCCCCCCSc1nc(NCCCN(C)C)nc(SCCCCCC)n1 [S6S9 D6] | 7.1%
15 | CCCCCCCCCSc1nc(NCCN(CC)CC)nc(SCCCCCC)n1 [S6S9 D7] | 10.2%
16 | CCCCCCCCCSc1nc(NCCCN2CCOCC2)nc(SCCCCCC)n1 [S6S9 D8] | 2.0%
17 | CCCCCCCCCSc1nc(NCCCN2CCN(C)CC2)nc(SCCCCCC)n1 [S6S9 D9] | 8.4%
18 | CCCCCCCCCSc1nc(NCC2CCN(C)CC2)nc(SCCCCCC)n1 [S6S9 D10] | 18.0%
19 | CCCCCCCCCCSc1nc(NCCN(C)C)nc(SCCCCCC)n1 [S6S10 D1] | 3.2%
20 | CCCCCCCCCCSc1nc(NCCN2CCOCC2)nc(SCCCCCC)n1 [S6S10 D2] | 8.3%
21 | CCCCCCCCCCSc1nc(NCCN2CCCC2)nc(SCCCCCC)n1 [S6S10 D3] | 4.4%
22 | CCCCCCCCCCSc1nc(NCCN2CCCCC2)nc(SCCCCCC)n1 [S6S10 D4] | 4.5%

Row | Structure (SMILES) | Absolute DNA transfection efficiency in HEK293 cells
23 | CCCCCCCCCCSc1nc(NCCN2CCN(C)CC2)nc(SCCCCCC)n1 [S6S10 D5] | 12.4%
24 | CCCCCCCCCCSc1nc(NCCCN(C)C)nc(SCCCCCC)n1 [S6S10 D6] | 20.9%
25 | CCCCCCCCCCSc1nc(NCCN(CC)CC)nc(SCCCCCC)n1 [S6S10 D7] | 7.7%
26 | CCCCCCCCCCSc1nc(NCCCN2CCOCC2)nc(SCCCCCC)n1 [S6S10 D8] | 0.0%
27 | CCCCCCCCCCSc1nc(NCCCN2CCN(C)CC2)nc(SCCCCCC)n1 [S6S10 D9] | 7.9%
28 | CCCCCCCCCCSc1nc(NCC2CCN(C)CC2)nc(SCCCCCC)n1 [S6S10 D10] | 14.9%
29 | CCCCCCCCCCCSc1nc(NCCN(C)C)nc(SCCCCCC)n1 [S6S11 D1] | 6.0%
30 | CCCCCCCCCCCSc1nc(NCCN2CCOCC2)nc(SCCCCCC)n1 [S6S11 D2] | 18.7%
31 | CCCCCCCCCCCSc1nc(NCCN2CCCC2)nc(SCCCCCC)n1 [S6S11 D3] | 12.4%
32 | CCCCCCCCCCCSc1nc(NCCN2CCCCC2)nc(SCCCCCC)n1 [S6S11 D4] | 6.2%
33 | CCCCCCCCCCCSc1nc(NCCN2CCN(C)CC2)nc(SCCCCCC)n1 [S6S11 D5] | 32.7%
34 | CCCCCCCCCCCSc1nc(NCCCN(C)C)nc(SCCCCCC)n1 [S6S11 D6] | 32.1%
35 | CCCCCCCCCCCSc1nc(NCCN(CC)CC)nc(SCCCCCC)n1 [S6S11 D7] | 10.1%
36 | CCCCCCCCCCCSc1nc(NCCCN2CCOCC2)nc(SCCCCCC)n1 [S6S11 D8] | 4.5%
37 | CCCCCCCCCCCSc1nc(NCCCN2CCN(C)CC2)nc(SCCCCCC)n1 [S6S11 D9] | 16.8%
38 | CCCCCCCCCCCSc1nc(NCC2CCN(C)CC2)nc(SCCCCCC)n1 [S6S11 D10] | 38.1%
39 | CCCCCCCCCCCCSc1nc(NCCN(C)C)nc(SCCCCCC)n1 [S6S12 D1] | 6.3%
40 | CCCCCCCCCCCCSc1nc(NCCN2CCOCC2)nc(SCCCCCC)n1 [S6S12 D2] | 5.0%
41 | CCCCCCCCCCCCSc1nc(NCCN2CCCC2)nc(SCCCCCC)n1 [S6S12 D3] | 4.3%
42 | CCCCCCCCCCCCSc1nc(NCCN2CCCCC2)nc(SCCCCCC)n1 [S6S12 D4] | 3.0%
43 | CCCCCCCCCCCCSc1nc(NCCN2CCN(C)CC2)nc(SCCCCCC)n1 [S6S12 D5] | 28.8%
44 | CCCCCCCCCCCCSc1nc(NCCCN(C)C)nc(SCCCCCC)n1 [S6S12 D6] | 13.6%

Row | Structure (SMILES) | Absolute DNA transfection efficiency in HEK293 cells
45 | CCCCCCCCCCCCSc1nc(NCCN(CC)CC)nc(SCCCCCC)n1 [S6S12 D7] | 6.6%
46 | CCCCCCCCCCCCSc1nc(NCCCN2CCOCC2)nc(SCCCCCC)n1 [S6S12 D8] | 7.5%
47 | CCCCCCCCCCCCSc1nc(NCCCN2CCN(C)CC2)nc(SCCCCCC)n1 [S6S12 D9] | 9.4%
48 | CCCCCCCCCCCCSc1nc(NCC2CCN(C)CC2)nc(SCCCCCC)n1 [S6S12 D10] | 24.4%
49 | CCCCCCCCCCCCCCSc1nc(NCCN(C)C)nc(SCCCCCC)n1 [S6S14 D1] | 8.3%
50 | CCCCCCCCCCCCCCSc1nc(NCCN2CCOCC2)nc(SCCCCCC)n1 [S6S14 D2] | 11.1%
51 | CCCCCCCCCCCCCCSc1nc(NCCN2CCCC2)nc(SCCCCCC)n1 [S6S14 D3] | 9.2%
52 | CCCCCCCCCCCCCCSc1nc(NCCN2CCCCC2)nc(SCCCCCC)n1 [S6S14 D4] | 12.0%
53 | CCCCCCCCCCCCCCSc1nc(NCCN2CCN(C)CC2)nc(SCCCCCC)n1 [S6S14 D5] | 18.6%
54 | CCCCCCCCCCCCCCSc1nc(NCCCN(C)C)nc(SCCCCCC)n1 [S6S14 D6] | 21.9%
55 | CCCCCCCCCCCCCCSc1nc(NCCN(CC)CC)nc(SCCCCCC)n1 [S6S14 D7] | 4.7%
56 | CCCCCCCCCCCCCCSc1nc(NCCCN2CCOCC2)nc(SCCCCCC)n1 [S6S14 D8] | 2.3%
57 | CCCCCCCCCCCCCCSc1nc(NCCCN2CCN(C)CC2)nc(SCCCCCC)n1 [S6S14 D9] | 4.1%
58 | CCCCCCCCCCCCCCSc1nc(NCC2CCN(C)CC2)nc(SCCCCCC)n1 [S6S14 D10] | 53.3%
59 | CCCCCCCCCCCCCCCSc1nc(NCCN(C)C)nc(SCCCCCC)n1 [S6S15 D1] | 5.5%
60 | CCCCCCCCCCCCCCCSc1nc(NCCN2CCOCC2)nc(SCCCCCC)n1 [S6S15 D2] | 8.4%
61 | CCCCCCCCCCCCCCCSc1nc(NCCN2CCCC2)nc(SCCCCCC)n1 [S6S15 D3] | 14.5%
62 | CCCCCCCCCCCCCCCSc1nc(NCCN2CCCCC2)nc(SCCCCCC)n1 [S6S15 D4] | 7.9%
63 | CCCCCCCCCCCCCCCSc1nc(NCCN2CCN(C)CC2)nc(SCCCCCC)n1 [S6S15 D5] | 13.7%
64 | CCCCCCCCCCCCCCCSc1nc(NCCCN(C)C)nc(SCCCCCC)n1 [S6S15 D6] | 36.4%

— patent US20230123334A1, “AMINO LIPID COMPOUND, PREPARATION METHOD THEREFOR, AND APPLICATION THEREOF” (SHENZHEN SHENXIN BIOTECHNOLOGY CO., LTD., priority 2020, published 2023)
